One block for each compound: values may come before it.
Assays:
[1] = tested on: Human rhinovirus sp.; test: Antiviral activity against rhinoviral-1B serotype in a plaque inhibition assay using monolayers of M-HeLa cells; format: functional, organism-based
[2] = tested on: Human rhinovirus sp.; test: Antiviral activity against rhinoviral 31 serotype in a plaque inhibition assay using monolayers of M-HeLa cells; format: functional, organism-based
[3] = tested on: Human rhinovirus sp.; test: Antiviral activity against rhinoviral 3 serotype in a plaque inhibition assay using monolayers of M-HeLa cells; format: functional, organism-based
[4] = tested on: Human rhinovirus sp.; test: Antiviral activity against rhinoviral 30 serotype in a plaque inhibition assay using monolayers of M-HeLa cells; format: functional, organism-based
[5] = tested on: Human rhinovirus sp.; test: Antiviral activity against rhinoviral 15 serotype in a plaque inhibition assay using monolayers of M-HeLa cells; format: functional, organism-based
[6] = tested on: Human rhinovirus sp.; test: Percent inhibitory activity at 8 uM against rhinoviral 19s erotype in a plaque inhibition assay using monolayers of M-HeLa cells; format: functional
[7] = tested on: Human rhinovirus sp.; test: Antiviral activity against rhinoviral 16 serotype in a plaque inhibition assay using monolayers of M-HeLa cells; format: functional, organism-based
[8] = tested on: Human rhinovirus sp.; test: Antiviral activity against rhinoviral 9 serotype in a plaque inhibition assay using monolayers of M-HeLa cells; format: functional, organism-based
[9] = tested on: Human rhinovirus sp.; test: Percent inhibitory activity at 8 uM against rhinoviral 13 serotype in a plaque inhibition assay using monolayers of M-HeLa cells; format: functional
[10] = tested on: Human rhinovirus sp.; test: Antiviral activity against rhinoviral 2 serotype in a plaque inhibition assay using monolayers of M-HeLa cells; format: functional, organism-based
[11] = tested on: Human rhinovirus sp.; test: Antiviral activity against rhinoviral 12 serotype in a plaque inhibition assay using monolayers of M-HeLa cells; format: functional, organism-based
[12] = tested on: Human rhinovirus sp.; test: Antiviral activity against rhinoviral 21 serotype in a plaque inhibition assay using monolayers of M-HeLa cells; format: functional, organism-based
[13] = tested on: Human rhinovirus sp.; test: Percent inhibitory activity at 8 uM against rhinoviral 5 serotype in a plaque inhibition assay using monolayers of M-HeLa cells; format: functional
[14] = tested on: Human rhinovirus sp.; test: Antiviral activity against rhinoviral 14 serotype in a plaque inhibition assay using monolayers of M-HeLa cells; format: functional, organism-based
[15] = tested on: Human rhinovirus sp.; test: Antiviral activity against rhinoviral-1A serotype in a plaque inhibition assay using monolayers of M-HeLa cells; format: functional, organism-based
[16] = tested on: Human rhinovirus sp.; test: Antiviral activity against rhinoviral 29 serotype in a plaque inhibition assay using monolayers of M-HeLa cells; format: functional, organism-based
[17] = tested on: Human rhinovirus sp.; test: Antiviral activity against rhinoviral 4 serotype in a plaque inhibition assay using monolayers of M-HeLa cells; format: functional, organism-based
[18] = tested on: Human rhinovirus sp.; test: Antiviral activity against rhinoviral 18 serotype in a plaque inhibition assay using monolayers of M-HeLa cells; format: functional, organism-based
[19] = tested on: Human rhinovirus sp.; test: Antiviral activity against rhinoviral 8 serotype in a plaque inhibition assay using monolayers of M-HeLa cells; format: functional, organism-based
[20] = tested on: Human rhinovirus sp.; test: Percent inhibitory activity at 8 uM against rhinoviral 15 serotype in a plaque inhibition assay using monolayers of M-HeLa cells; format: functional
[21] = tested on: Human rhinovirus sp.; test: Antiviral activity against rhinoviral 5 serotype in a plaque inhibition assay using monolayers of M-HeLa cells; format: functional, organism-based
[22] = tested on: Human rhinovirus sp.; test: Percent inhibitory activity at 8 uM against rhinoviral 14 serotype in a plaque inhibition assay using monolayers of M-HeLa cells; format: functional
[23] = tested on: Human rhinovirus sp.; test: Percent inhibitory activity at 8 uM against rhinoviral 21 serotype in a plaque inhibition assay using monolayers of M-HeLa cells; format: functional
[24] = tested on: Human rhinovirus sp.; test: Antiviral activity against rhinoviral-19 serotype in a plaque inhibition assay using monolayers of M-HeLa cells; format: functional, organism-based
[25] = tested on: Human rhinovirus sp.; test: Percent inhibitory activity at 8 uM against rhinoviral 3 serotype in a plaque inhibition assay using monolayers of M-HeLa cells; format: functional
[26] = tested on: Human rhinovirus sp.; test: Percent inhibitory activity at 8 uM against rhinoviral 30 serotype in a plaque inhibition assay using monolayers of M-HeLa cells; format: functional
[27] = tested on: Human rhinovirus sp.; test: Percent inhibitory activity at 8 uM against rhinoviral 4 serotype in a plaque inhibition assay using monolayers of M-HeLa cells; format: functional
[28] = tested on: Human rhinovirus sp.; test: Percent inhibitory activity at 8 uM against rhinoviral 29 serotype in a plaque inhibition assay using monolayers of M-HeLa cells; format: functional
[29] = tested on: Human rhinovirus sp.; test: Antiviral activity against rhinoviral-18 serotype in a plaque inhibition assay using monolayers of M-HeLa cells; format: functional, organism-based
[30] = tested on: Human rhinovirus sp.; test: Percent inhibitory activity at 8 uM against rhinoviral 31 serotype in a plaque inhibition assay using monolayers of M-HeLa cells; format: functional

- IC50 [1]: 280 µM
Compound: CN(C)c1nc(C(F)(F)F)nc2c1ncn2Cc1ccccc1[N+](=O)[O-]

- IC50 [1]: 135 µM
Compound: COc1cc(Cl)ccc1Cn1cnc2c(N(C)C)nc(C(F)(F)F)nc21

- IC50 [2]: 5.5 µM
- IC50 [3]: 8 µM
- IC50 [4]: 4.6 µM
- IC50 [5]: 5.7 µM
- IC50 [7]: 1.2 µM
- IC50 [8]: 0.7 µM
- IC50 [10]: 7.3 µM
- IC50 [11]: 9.5 µM
- IC50 [12]: 5 µM
- IC50 [14]: 8.1 µM
- IC50 [15]: 0.76 µM
- IC50 [16]: 3.2 µM
- IC50 [17]: 7.6 µM
- IC50 [18]: 7.5 µM
- IC50 [19]: 8.3 µM
- IC50 [1]: 0.03 µM
Compound: CN(C)c1nc(C(F)(F)F)nc2c1ncn2Cc1ccc(Br)cc1
- Inhibition [6]: 27%
- Inhibition [9]: 40%
- Inhibition [13]: 37%

- IC50 [1]: 0.13 µM
Compound: CN(C)c1nc(C(F)(F)F)nc2c1ncn2Cc1ccc(N)cc1

- IC50 [1]: 0.13 µM
Compound: CN(C)c1nc(C(F)(F)F)nc2c1ncn2Cc1cccc([N+](=O)[O-])c1

- IC50 [2]: 4.2 µM
- IC50 [3]: 8 µM
- IC50 [4]: 6.6 µM
- IC50 [7]: 2.1 µM
- IC50 [21]: 11 µM
- IC50 [8]: 1.5 µM
- IC50 [10]: 5.2 µM
- IC50 [11]: 10 µM
- IC50 [15]: 2.8 µM
- IC50 [16]: 2.5 µM
- IC50 [17]: 3.7 µM
- IC50 [18]: 6.8 µM
- IC50 [19]: 10 µM
- IC50 [1]: 1 µM
Compound: CC(C)Oc1ccc(Cn2cnc3c(N(C)C)nc(C(F)(F)F)nc32)cc1
- Inhibition [6]: 33%
- Inhibition [20]: 40%
- Inhibition [9]: 39%
- Inhibition [22]: 22%
- Inhibition [23]: 40%

- IC50 [2]: 12 µM
- IC50 [24]: 10 µM
- IC50 [7]: 1.9 µM
- IC50 [21]: > 8 µM
- IC50 [8]: 2 µM
- IC50 [10]: 9 µM
- IC50 [11]: 7.8 µM
- IC50 [14]: 9 µM
- IC50 [15]: 0.82 µM
- IC50 [29]: 10 µM
- IC50 [19]: 9.5 µM
- IC50 [1]: 0.12 µM
Compound: Cc1cc(Cl)ccc1Cn1cnc2c(N(C)C)nc(C(F)(F)F)nc21
- Inhibition [20]: 11%
- Inhibition [25]: 29%
- Inhibition [26]: 28%
- Inhibition [27]: 25%
- Inhibition [9]: 23%
- Inhibition [28]: 32%
- Inhibition [23]: 22%

- IC50 [1]: 4.6 µM
Compound: CN(C)c1nc(C(F)(F)F)nc2c1ncn2Cc1cccc(C(=O)O)c1

- IC50 [1]: 2.1 µM
Compound: CCCCOc1ccc(Cn2cnc3c(N(C)C)nc(C(F)(F)F)nc32)cc1

- IC50 [1]: 6.9 µM
Compound: CN(C)c1nc(C(F)(F)F)nc2c1ncn2Cc1ccc(Cl)cc1NC=O

- IC50 [1]: 70 µM
Compound: COc1cc(C)ccc1Cn1cnc2c(N(C)C)nc(C(F)(F)F)nc21

- IC50 [1]: 0.3 µM
Compound: CN(C)c1nc(C(F)(F)F)nc2c1ncn2Cc1cccc(N)c1

- IC50 [1]: 0.37 µM
Compound: CC(=O)Nc1ccc(Cn2cnc3c(N(C)C)nc(C(F)(F)F)nc32)cc1

- IC50 [1]: 4.6 µM
Compound: CN(C)c1nc(C(F)(F)F)nc2c1ncn2Cc1ccc(C(=O)O)cc1

- IC50 [1]: 5 µM
Compound: CCOC(=O)c1ccc(Cn2cnc3c(N(C)C)nc(C(F)(F)F)nc32)cc1

- IC50 [1]: 0.25 µM
Compound: CN(C)c1cccc(Cn2cnc3c(N(C)C)nc(C(F)(F)F)nc32)c1

- IC50 [3]: 14 µM
- IC50 [5]: 5.8 µM
- IC50 [7]: 1.6 µM
- IC50 [21]: > 8 µM
- IC50 [8]: 1.5 µM
- IC50 [10]: 6.5 µM
- IC50 [11]: 5.2 µM
- IC50 [14]: 7.1 µM
- IC50 [15]: 2.4 µM
- IC50 [17]: 7.2 µM
- IC50 [29]: 14 µM
- IC50 [19]: 6.2 µM
- IC50 [1]: 0.17 µM
Compound: CN(C)c1nc(C(F)(F)F)nc2c1ncn2Cc1ccc(Cl)c(N)c1
- Inhibition [6]: 40%
- Inhibition [30]: 29%
- Inhibition [26]: 34%
- Inhibition [9]: 18%
- Inhibition [28]: 26%
- Inhibition [23]: 10%

- IC50 [1]: 1.1 µM
Compound: CN(C)c1nc(C(F)(F)F)nc2c1ncn2Cc1cccc(OCc2ccccc2)c1

- IC50 [1]: 0.2 µM
Compound: CN(C)c1nc(C(F)(F)F)nc2c1ncn2Cc1ccc(CO)cc1

- IC50 [1]: 0.17 µM
Compound: CN(C)c1nc(C(F)(F)F)nc2c1ncn2Cc1ccc(O)cc1

- IC50 [1]: 2.6 µM
Compound: COC(=O)c1cccc(Cn2cnc3c(N(C)C)nc(C(F)(F)F)nc32)c1

- IC50 [1]: 0.53 µM
Compound: CN(C)c1nc(C(F)(F)F)nc2c1ncn2Cc1ccc(Cl)cc1[N+](=O)[O-]

- IC50 [1]: 0.1 µM
Compound: COc1cccc(Cn2cnc3c(N(C)C)nc(C(F)(F)F)nc32)c1
